Measurements published in US12357652B2, “Formulations of phosphoramidate derivatives of nucleoside drugs” (priority 2015, dated 2025).

Columns and labels:
[1] = Stability of 100 mg/ml NUC-3373 surfactant solution; type: physicochemical
Protocol: The successful development of the Diluent Solution to enable preparation of the NUC-1031 aqueous formulation prompted its development for an aqueous formulation of NUC-3373. An aqueous NUC-3373 formulation was developed by adding 6.7 ml of a 250 mg/ml solution of NUC-3373 in 80% DMA:20% 0.9% saline to 10 ml diluent solution to generate a 100 mg/ml NUC-3373 surfactant solution (see Table 4), prior to subsequent dilution into an infusion bag.

[2] = Stability of NUC-3373 aqueous infusion solution in 250 ml 0.9% saline bags; type: physicochemical
Protocol: The stability of the aqueous infusion solution was also evaluated using three different doses of NUC-3373 (1,000 mg, 2,000 mg and 3,000 mg) diluted in 250 ml 0.9% saline bags at two storage conditions (5° C. and 20° C.).

[3] = 1,000 mg NUC-3373 in 250 ml 0.9% saline infusion bag, 0 hours, 5° C.
[4] = 1,000 mg NUC-3373 in 250 ml 0.9% saline infusion bag, 0 hours, 20° C.
[5] = 1,000 mg NUC-3373 in 250 ml 0.9% saline infusion bag, 8 hours, 5° C.
[6] = 1,000 mg NUC-3373 in 250 ml 0.9% saline infusion bag, 8 hours, 20° C.
[7] = 1,000 mg NUC-3373 in 250 ml 0.9% saline infusion bag, 24 hours, 5° C.
[8] = 1,000 mg NUC-3373 in 250 ml 0.9% saline infusion bag, 24 hours, 20° C.
[9] = 1,000 mg NUC-3373 in 250 ml 0.9% saline infusion bag, 48 hours, 5° C.
[10] = 1,000 mg NUC-3373 in 250 ml 0.9% saline infusion bag, 48 hours, 20° C.
[11] = 2,000 mg NUC-3373 in 250 ml 0.9% saline infusion bag, 0 hours, 5° C.
[12] = 2,000 mg NUC-3373 in 250 ml 0.9% saline infusion bag, 0 hours, 20° C.

Which Assay content ([1]; 0 hours, 5° C.) does the source give for C[C@H](NP(=O)(OC[C@H]1O[C@@H](n2cc(F)c(=O)[nH]c2=O)CC1O)Oc1cccc2ccccc12)C(=O)OCc1ccccc1 (stereo partly drawn) [NUC-3373, 5-fluoro-2′-deoxyuridine-5′-O-[1-naphthyl (benzoxy-L-alaninyl)] phosphate] here?
The Assay content was 105.5 mg/mL.

What about the Purity ([1]; 0 hours, 5° C.) of the same compound?
Its Purity is 96.1 % area.

And the pH ([1]; 0 hours, 5° C.)?
The pH was 7.8.

And the Assay content ([1]; 0 hours, 20° C.)?
The Assay content was 104.8 mg/mL.

And the Purity ([1]; 0 hours, 20° C.)?
Its Purity is 96.2 % area.

And the pH ([1]; 0 hours, 20° C.)?
The pH was 7.8.

And the Assay content ([1]; 8 hours, 5° C.)?
Its Assay content is 102.5 mg/mL.

What about the Purity ([1]; 8 hours, 5° C.) of the same compound?
The Purity was 96.2 % area.

And the pH ([1]; 8 hours, 5° C.)?
Its pH is 7.9.

What about the Assay content ([1]; 8 hours, 20° C.) of the same compound?
Its Assay content is 100.7 mg/mL.

And the Purity ([1]; 8 hours, 20° C.)?
The Purity was 96.1 % area.

What about the pH ([1]; 8 hours, 20° C.) of the same compound?
The pH was 7.8.

And the Assay content ([1]; 24 hours, 5° C.)?
The Assay content was 103.7 mg/mL.

And the Purity ([1]; 24 hours, 5° C.)?
The Purity was 96.1 % area.

And the pH ([1]; 24 hours, 5° C.)?
Its pH is 7.9.

And the Assay content ([1]; 24 hours, 20° C.)?
The Assay content was 99.1 mg/mL.

What about the Purity ([1]; 24 hours, 20° C.) of the same compound?
Its Purity is 96.1 % area.

What about the pH ([1]; 24 hours, 20° C.) of the same compound?
The pH was 7.8.

What about the Assay content ([1]; 48 hours, 5° C.) of the same compound?
Its Assay content is 102.4 mg/mL.

And the Purity ([1]; 48 hours, 5° C.)?
The Purity was 96.1 % area.

And the pH ([1]; 48 hours, 5° C.)?
Its pH is 7.9.

And the Assay content ([1]; 48 hours, 20° C.)?
Its Assay content is 99.4 mg/mL.

What about the Purity ([1]; 48 hours, 20° C.) of the same compound?
The Purity was 96.2 % area.

And the pH ([1]; 48 hours, 20° C.)?
The pH was 7.9.

What about the Stability ([1]; for 48 hours at 5° C. and 20° C.) of the same compound?
Its Stability is “stable”.

And the “Assay content NUC-3373” value [2, 3]?
The value was 3.7 mg/mL.

And the Osmolarity [2, 3]?
Its Osmolarity is 457 mosm/L H20.

And the Purity [2, 3]?
Its Purity is 96.2 % area.

And the “Total NUC-3373” value [2, 3]?
The value was 960.9 mg.

And the pH [2, 3]?
The pH was 5.5.

What about the “Assay content NUC-3373” value [2, 4] of the same compound?
The value was 3.9 mg/mL.

And the Osmolarity [2, 4]?
The Osmolarity was 462 mosm/L H20.

What about the Purity [2, 4] of the same compound?
Its Purity is 96.1 % area.

And the “Total NUC-3373” value [2, 4]?
The value was 1012.8 mg.

What about the pH [2, 4] of the same compound?
The pH was 5.6.

And the “Assay content NUC-3373” value [2, 5]?
Its value is 3.6 mg/mL.

And the Osmolarity [2, 5]?
The Osmolarity was 450 mosm/L H20.

And the Purity [2, 5]?
Its Purity is 96.1 % area.

And the “Total NUC-3373” value [2, 5]?
The value was 934.9 mg.

What about the pH [2, 5] of the same compound?
Its pH is 5.6.

What about the “Assay content NUC-3373” value [2, 6] of the same compound?
Its value is 3.7 mg/mL.

What about the Osmolarity [2, 6] of the same compound?
Its Osmolarity is 459 mosm/L H20.

What about the Purity [2, 6] of the same compound?
The Purity was 96.1 % area.

And the “Total NUC-3373” value [2, 6]?
Its value is 960.9 mg.

What about the pH [2, 6] of the same compound?
The pH was 5.5.

And the “Assay content NUC-3373” value [2, 7]?
The value was 3.6 mg/mL.

And the Osmolarity [2, 7]?
The Osmolarity was 456 mosm/L H20.

What about the Purity [2, 7] of the same compound?
The Purity was 96.1 % area.

And the “Total NUC-3373” value [2, 7]?
Its value is 934.9 mg.

And the pH [2, 7]?
The pH was 5.6.

And the “Assay content NUC-3373” value [2, 8]?
The value was 3.7 mg/mL.

What about the Osmolarity [2, 8] of the same compound?
Its Osmolarity is 462 mosm/L H20.

What about the Purity [2, 8] of the same compound?
The Purity was 96.1 % area.

And the “Total NUC-3373” value [2, 8]?
Its value is 960.9 mg.

And the pH [2, 8]?
Its pH is 5.8.

And the “Assay content NUC-3373” value [2, 9]?
Its value is 3.6 mg/mL.

And the Osmolarity [2, 9]?
Its Osmolarity is 451 mosm/L H20.

What about the Purity [2, 9] of the same compound?
The Purity was 96.2 % area.

And the “Total NUC-3373” value [2, 9]?
Its value is 934.9 mg.

What about the pH [2, 9] of the same compound?
The pH was 5.5.

What about the “Assay content NUC-3373” value [2, 10] of the same compound?
The value was 3.8 mg/mL.

What about the Osmolarity [2, 10] of the same compound?
Its Osmolarity is 455 mosm/L H20.

What about the Purity [2, 10] of the same compound?
Its Purity is 96.1 % area.

And the “Total NUC-3373” value [2, 10]?
Its value is 986.9 mg.

What about the pH [2, 10] of the same compound?
The pH was 5.5.

What about the “Assay content NUC-3373” value [2, 11] of the same compound?
Its value is 7.2 mg/mL.

What about the Osmolarity [2, 11] of the same compound?
The Osmolarity was 639 mosm/L H20.

What about the Purity [2, 11] of the same compound?
The Purity was 96.1 % area.

And the “Total NUC-3373” value [2, 11]?
The value was 1946 mg.

What about the pH [2, 11] of the same compound?
The pH was 5.5.

What about the “Assay content NUC-3373” value [2, 12] of the same compound?
Its value is 7.4 mg/mL.

And the Osmolarity [2, 12]?
Its Osmolarity is 646 mosm/L H20.

And the Purity [2, 12]?
The Purity was 96.1 % area.

What about the “Total NUC-3373” value [2, 12] of the same compound?
The value was 2000 mg.

What about the pH [2, 12] of the same compound?
Its pH is 5.5.

And the “Assay content NUC-3373” value ([2]; 2,000 mg NUC-3373 in 250 ml 0.9% saline infusion bag, 8 hours, 5° C.)?
The value was 7.0 mg/mL.
